# Results reported in patent US20250228913A1, “STABILIZED OMEGA-3 OPHTHALMIC COMPOSITIONS” (Allergan, Inc., priority 2014, published 2025).
# “Also recorded” adds a separate entry of the source. Read-outs that look alike come from different tables or passages of the source.
# Tests used:
# [1] = Physical and chemical stability monitoring of emulsion prototypes with different antioxidants and additives
# Procedure: A variety of ophthalmic compositions were evaluated which contained antioxidants with the intent to prevent the degradation of the omega-3 oil components. A common problem with omega-3 oils is their propensity to degrade and become rancid over time.
# Emulsion prototypes were designed using a range of excipients including different surfactants, antioxidants and aqueous additives. The physical and chemical stability of these prototype formulations were monitored over 3, 6 and/or 12 months at accelerated and/or long-term storage conditions. […] Details of these stability studies are provided in the examples herein.
# [2] = Chemical stability of omega-3 oils in emulsions (FIG. 1, FIG. 2); details: emulsions of Table 10
# [3] = Physical appearance of omega-3 emulsions on storage; type: physicochemical; details: added in the oil phase
Molecule,Effect of antioxidant or additive on stability of omega-3 oils [1],Effect of excipient on chemical stability of omega-3 oils in emulsion [2],Effect of antioxidant or additive on stability of omega-3 oils ([1]; in ophthalmic emulsions),Effect on physical stability of omega-3 oils in emulsion [3]
CC(=O)C(=O)O [pyruvate],did not impact stability,No significant impact,–,–
CC(=O)Oc1c(C)c(C)c2c(c1C)CCC(C)(CCC[C@H](C)CCC[C@H](C)CCCC(C)C)O2 (stereo partly drawn) [Vitamin E acetate],–,–,did not show beneficial effects; also recorded: led to degradation of omega-3 oil,–
OC[C@H]1O[C@H](O[C@H]2O[C@H](CO)[C@@H](O)[C@H](O)[C@H]2O)[C@H](O)[C@@H](O)[C@@H]1O [trehalose],did not impact stability,–,–,–
vitamin E,not effective,–,–,–
"O=C([O-])CN(CCN(CC(=O)[O-])CC(=O)O)CC(=O)O.[Na+].[Na+] [EDTA, edetate disodium]",–,No significant impact,did not impact stability,–
"COc1ccc(O)c(C(C)(C)C)c1 [BHA, Butylated hydroxyanisole]",–,–,stabilizing effect,improved physical stability
"Cc1cc(C(C)(C)C)c(O)c(C(C)(C)C)c1 [BHT, 2,6-bis(1,1-dimethylethyl)-4-methylphenol]",stabilizing effect,–,–,improved physical stability
Cc1c(C)c2c(c(C)c1O)CC[C@@](C)(CCC[C@H](C)CCC[C@H](C)CCCC(C)C)O2 [alpha tocopherol],–,worsened the chemical stability,–,–
